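Compound exposure: 48 hours, 5 concentrations, 96-well plates. TGI is the concentration that stops growth completely.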
Assays:
Assay in all cases: NCI-60 cell line screen, 48 h
[1] = tested on: SNB-75 CNS
[2] = tested on: HT29 colon
[3] = tested on: MALME-3M melanoma
[4] = tested on: HCC-2998 colon
[5] = tested on: UO-31 renal
[6] = tested on: A498 renal
[7] = tested on: HOP-62 NSCLC
[8] = tested on: CCRF-CEM leukemia
[9] = tested on: SK-MEL-28 melanoma
[10] = tested on: 786-0 renal
[11] = tested on: SK-MEL-5 melanoma
[12] = tested on: HL-60(TB) leukemia
[13] = tested on: HCT-116 colon
[14] = tested on: SR leukemia
[15] = tested on: NCI-H460 lung
[16] = tested on: M19-MEL melanoma
[17] = tested on: OVCAR-3 ovarian
[18] = tested on: M14 melanoma
[19] = tested on: SNB-19 CNS
[20] = tested on: UACC-257 melanoma
[21] = tested on: OVCAR-4 ovarian
[22] = tested on: EKVX NSCLC
[23] = tested on: SK-MEL-2 melanoma
[24] = tested on: SW-620 colon
[25] = tested on: NCI-H522 lung
[26] = tested on: SK-OV-3 ovarian
[27] = tested on: SF-268 CNS
[28] = tested on: U251 CNS
[29] = tested on: NCI-H226 lung
[30] = tested on: RPMI-8226 leukemia
[31] = tested on: IGROV1 ovarian
[32] = tested on: SN12C renal
[33] = tested on: LXFL 529 NSCLC
[34] = tested on: SF-295 CNS
[35] = tested on: KM20L2 colon
[36] = tested on: KM12 colon
[37] = tested on: MOLT-4 leukemia
[38] = tested on: DMS 273 small cell lung
[39] = tested on: TK-10 renal
[40] = tested on: ACHN renal
[41] = tested on: SF-539 CNS
[42] = tested on: SNB-78 CNS
[43] = tested on: K-562 leukemia
[44] = tested on: UACC-62 melanoma
[45] = tested on: RXF 393 renal
[46] = tested on: HOP-18 NSCLC
[47] = tested on: A549 NSCLC
[48] = tested on: OVCAR-8 ovarian
[49] = tested on: NCI-H23 lung
[50] = tested on: XF 498 CNS
[51] = tested on: OVCAR-5 ovarian
[52] = tested on: LOX IMVI melanoma
[53] = tested on: RXF-631 renal
[54] = tested on: CAKI-1 renal
[55] = tested on: HOP-92 NSCLC
[56] = tested on: COLO 205 colon
[57] = tested on: HCT-15 colon
[58] = tested on: DLD-1 colon

With `c1ccc(C2CC(c3ccc4ccccc4c3)=Nc3ccccc3S2)cc1` (stereo not given) the TGI [1] was 40.4 µM, the TGI [2] was 30.8 µM and the TGI [3] was 35.8 µM. It also gave a TGI [4] of 24.8 µM, a TGI [5] of 25.1 µM and a TGI [6] of 31.1 µM. It also gave a TGI [7] of 38.2 µM, a TGI [8] of 99.7 µM and a TGI [9] of 33.1 µM. The TGI [10] was 30.2 µM, the TGI [11] was 35.3 µM and the TGI [12] was 55.9 µM. It also gave a TGI [13] of 30 µM, a TGI [14] greater than 100 µM and a TGI [15] of 29.1 µM. It also gave a TGI [16] of 40.5 µM, a TGI [17] of 38.7 µM and a TGI [18] of 31.2 µM. The TGI [19] was 36.7 µM, the TGI [20] was 34.9 µM and the TGI [21] was 37.5 µM. For the same compound, the TGI [22] was 50.7 µM, the TGI [23] was 34.6 µM and the TGI [24] was 33.8 µM. It also gave a TGI [25] of 33.2 µM, a TGI [26] of 80.9 µM and a TGI [27] of 31.1 µM. It also gave a TGI [28] of 31 µM, a TGI [29] of 42.7 µM and a TGI [30] greater than 100 µM. It also gave a TGI [31] of 49 µM, a TGI [32] of 30.4 µM and a TGI [33] of 27.6 µM. It also gave a TGI [34] of 31.7 µM, a TGI [35] of 33.1 µM and a TGI [36] of 38.8 µM. It also gave a TGI [37] greater than 100 µM, a TGI [38] of 48.6 µM and a TGI [39] of 37.8 µM. It also gave a TGI [40] of 31.2 µM, a TGI [41] of 31.5 µM and a TGI [42] of 37.3 µM. It also gave a TGI [43] of 59.3 µM, a TGI [44] of 35.2 µM and a TGI [45] of 33.4 µM. The TGI [46] was 58.5 µM, the TGI [47] was 38.8 µM and the TGI [48] was 29.9 µM. For the same compound, the TGI [49] was 28.9 µM, the TGI [50] was 31.2 µM and the TGI [51] was 37.6 µM. For the same compound, the TGI [52] was 29.5 µM and the TGI [53] was 91.1 µM.

In the case of `COC(=O)/C(=C/c1ccc(OC)cc1)C(C(=O)O)=C1CCCCC1`, the TGI [1] is reported as greater than 100 µM, the TGI [2] is reported as greater than 100 µM and the TGI [5] is reported as greater than 100 µM. It also gave a TGI [6] greater than 100 µM, a TGI [7] greater than 100 µM and a TGI [8] greater than 100 µM. It also gave a TGI [10] greater than 100 µM, a TGI [11] greater than 100 µM and a TGI [12] greater than 100 µM. It also gave a TGI [13] greater than 100 µM, a TGI [14] greater than 100 µM and a TGI [15] greater than 100 µM. For the same compound, the TGI [16] was greater than 100 µM, the TGI [54] was greater than 100 µM and the TGI [18] was greater than 100 µM. It also gave a TGI [19] greater than 100 µM, a TGI [20] greater than 100 µM and a TGI [21] greater than 100 µM. The TGI [22] was greater than 100 µM, the TGI [23] was greater than 100 µM and the TGI [24] was greater than 100 µM. The TGI [25] was greater than 100 µM, the TGI [26] was greater than 100 µM and the TGI [28] was greater than 100 µM. For the same compound, the TGI [29] was greater than 100 µM, the TGI [30] was greater than 100 µM and the TGI [31] was greater than 100 µM. It also gave a TGI [32] greater than 100 µM, a TGI [33] greater than 100 µM and a TGI [34] greater than 100 µM. For the same compound, the TGI [35] was greater than 100 µM, the TGI [36] was greater than 100 µM and the TGI [37] was greater than 100 µM. It also gave a TGI [38] greater than 100 µM, a TGI [39] greater than 100 µM and a TGI [40] greater than 100 µM. It also gave a TGI [41] greater than 100 µM, a TGI [42] greater than 100 µM and a TGI [55] greater than 100 µM. For the same compound, the TGI [43] was greater than 100 µM, the TGI [56] was greater than 100 µM and the TGI [44] was greater than 100 µM. For the same compound, the TGI [45] was greater than 100 µM, the TGI [57] was greater than 100 µM and the TGI [58] was greater than 100 µM. It also gave a TGI [47] greater than 100 µM, a TGI [48] greater than 100 µM and a TGI [49] greater than 100 µM. It also gave a TGI [50] greater than 100 µM, a TGI [51] greater than 100 µM and a TGI [52] greater than 100 µM. The TGI [53] was greater than 100 µM.
